The results in this text go back to patent US20050085413A1, “Dimeric pharmaceutical compounds and their use” (priority 2001, published 2005).

For data set [1], the system named is A/Victoria/3/75 BVLV017 (H3N2). The data set can be described thus: Plaque reduction assay (PRA) in MDCK cells. The format is cell-based, influenza virus. The following applies: plaque numbers reduced by 50%; for EC50: Influenza A virus, H3N2, MDCK, read-out: EC50 ng/ml PRA A/Vic. A general note: In a plaque reduction assay, fewer plaques than in the control indicate reduced infectivity or spread.

For data set [2], the system named is B/Yamanashi/166/98 BVLV007. The data set can be described thus: Plaque reduction assay (PRA) in MDCK cells. It counts as cell-based, influenza virus. To be noted: plaque numbers reduced by 50%; for EC50: unidentified influenza virus, MDCK, read-out: EC50 ng/ml PRA B/Yam, B/Yamanashi/166/98 BVLV007; for EC50 ng/ml PRA B/Yam: B/Yamanashi/166/98 BVLV007.
The subject of another data set is B/Hong Kong/5/72 BVLV012. The data set can be described thus: Plaque reduction assay (PRA) in MDCK cells. The format is cell-based, influenza virus. To be noted: for EC50: MDCK, read-out: EC50 ng/ml PRA B/HongK.
Data set [3] deals with A/New Caledonia/20/99 BVLV008 (H1N1). Kind of data set: Plaque reduction assay (PRA) in MDCK cells. It counts as cell-based, influenza virus. To be noted: Influenza A virus, H1N1, MDCK, plaque numbers reduced by 50%, read-out: EC50 ng/ml PRA A/New.
The test system of data set [4] is A/Panama/2007/99 BVLV008 (H3N2). Kind of data set: Plaque reduction assay (PRA) in MDCK cells. It counts as cell-based, influenza virus. The following applies: Influenza A virus, H3N2, MDCK, plaque numbers reduced by 50%, read-out: EC50 ng/ml PRA A/Pan.
The conditions of data set [5]: in vivo. How it is done: Rodents were anaesthetised with Ketamine/Domitor mixture according to standard procedures and dosed with compound of interest by the intra-nasal route at a dose volume of approximately 3.0 ml/kg. The rodent is held in the vertical position during dosing of 30 μL per nostril. At different time points, for example, 2, 8, 24, 48 and 168 hours post-dose, levels of compound in the lung tissue are assessed by analytical methods. Any analytical method suitable for detection of this type of compound may be used. The time at which levels of compound fall below the sensitivity of the analytical techniques identified will determine the residency time of the compound in lung tissue.

The test system of data set [6] is Escherichia coli ATTCC 25922. Kind of data set: Kirby-Bauer disk test, zones of inhibition. The format is cell-based. The following applies: 30 μg/disk; for zone of inhibition at 30 µg/disc: Escherichia coli, ATTCC25922, read-out: diameter of zone of inhibition, Escherichia coli ATTCC 25922. The protocol:
(§1) Antibiotic activities were determined using a standard Kirby-Bauer* test and are reported as diameters (in mm) of zones of inhibition for test strains. All compounds were spotted at 30 μg/disk.

Data set [7] concerns Enterococcus faecalis ATCC 29212. The data set can be described thus: Kirby-Bauer disk test, zones of inhibition. The format is cell-based. To be noted: 30 μg/disk; for zone of inhibition at 30 µg/disc: Enterococcus faecalis, ATCC29212, read-out: diameter of zone of inhibition, Enterococcus faecalis ATCC 29212. How it is done: as §1
For data set [8], the system named is Pseudomonas aeuruginosa ATCC 27853. Kind of data set: Kirby-Bauer disk test, zones of inhibition. It counts as cell-based. To be noted: 30 μg/disk; for zone of inhibition at 30 µg/disc: Pseudomonas, ATCC27853, read-out: diameter of zone of inhibition, Pseudomonas aeuruginosa ATCC 27853. The protocol: as §1
The subject of data set [9] is Staphylococcus aureus ATCC 29213. Kind of data set: Kirby-Bauer disk test, zones of inhibition. The format is cell-based. To be noted: 30 μg/disk; for zone of inhibition at 30 µg/disc: Staphylococcus aureus, ATCC29213, read-out: diameter of zone of inhibition, Staphylococcus aureus ATCC 29213. The protocol: as §1
In the next data set the test system is B/Victoria/1/67. The data set can be described thus: Plaque reduction assay (PRA) in MDCK cells. The format is cell-based, influenza virus. The following applies: plaque numbers reduced by 50%, bis(trifluoroacetic acid salt).
The test system of data set [10] is A/Sydney/5/97 BVLV015 (H3N2). Kind of data set: Plaque reduction assay (PRA) in MDCK cells. The format is cell-based, influenza virus. The following applies: plaque numbers reduced by 50%.
A further data set relates to A/WSN/33 BVLV09 (H1N1). The data set can be described thus: Plaque reduction assay (PRA) in MDCK cells. The format is cell-based, influenza virus. The following applies: Influenza A virus, MDCK, plaque numbers reduced by 50%, read-out: EC50 ng/ml PRA A/WSN.

In brackets after ≈: the same amount, converted by molar mass. Several values for one entry are separate records, joined by “and”; a condition that tells them apart may be missing. Identical values can stand only once. Counter-ions that a name gives are not always drawn.

Take `NC12CC3CC(CC(C3)C1)C2` [Amantadine]: the EC50 in [1] is 220 ng/mL (≈ 1.45 µM); in [2], 2060 ng/mL (≈ 13.6 µM); in the data set on B/Hong Kong/5/72 BVLV012, greater than 10000 ng/mL; in data set [3], 11 ng/mL (≈ 0.0727 µM); in [4], 157 ng/mL (≈ 1.04 µM).
The term zone of inhibition denotes the extent of the growth-free halo in a diffusion test. As to `NCC1OC(OC2C(N)CC(N)C(OC3OC(CN4CCNCC4)C(O)C(N)C3O)C2O)C(N)CC1O` (stereo not shown) [Compound 5], in [5], the “nmole retained per gram of mouse lung after 7 days” value (“nmole retained per gram” for short) stood at 0.8 nmole per gram. The zone of inhibition at 30 µg/disc in data set [6] was 10.5 mm; in [7] it was 7.4 mm; in data set [8] it was 13.8 mm; in data set [9], 18.6 mm.
On to `NCC1OC(OC2C(N)CC(N)C(OC3OC(CN4CCN(C(=O)c5ccccc5-c5ccccc5C(=O)N5CCN(CC6OC(OC7C(N)CC(N)C(OC8OC(CN)C(O)CC8N)C7O)C(O)C(N)C6O)CC5)CC4)C(O)C(N)C3O)C2O)C(N)CC1O` (stereo not shown) [Compound 8], for which the “nmole retained per gram” value in [5] stood at 4.6 nmole per gram. In addition, the zone of inhibition at 30 µg/disc in data set [6] is 11.4 mm; in [7] it was 6.2 mm; in data set [8], 12.1 mm.
Take `NCC1OC(OC2C(N)CC(N)C(OC3OC(CNC(=O)Nc4ccc(Cc5ccc(NC(=O)NCC6OC(OC7C(N)CC(N)C(OC8OC(CN)C(O)CC8N)C7O)C(O)C(N)C6O)cc5)cc4)C(O)C(N)C3O)C2O)C(N)CC1O` (stereo not shown) [Compound 13]: the zone of inhibition at 30 µg/disc in [6] came out at 7.1 mm; in data set [7] it was 6.5 mm; in [8] it was 8.9 mm; in [9], 8.6 mm.
Consider `Cc1cc(C)c(NC(=O)N2CCN(CC3OC(OC4C(N)CC(N)C(OC5OC(CN)C(O)CC5N)C4O)C(O)C(N)C3O)CC2)c(C)c1NC(=O)N1CCN(CC2OC(OC3C(N)CC(N)C(OC4OC(CN)C(O)CC4N)C3O)C(O)C(N)C2O)CC1` (stereo not shown) [Compound 16], for which, in data set [5], the “nmole retained per gram” value is 2.8 nmole per gram. The zone of inhibition at 30 µg/disc in [6] is 6.5 mm; in data set [7] it was 6.2 mm; in [8], 10.1 mm.
The like results for `NC1CC(O)C(CNC(=O)NCCCCCCCCCCCCNC(=O)NCC2OC(OC3C(N)CC(N)C(OC4OC(CO)C(O)C(N)C4O)C3O)C(N)CC2O)OC1OC1C(N)CC(N)C(OC2OC(CO)C(O)C(N)C2O)C1O` (stereo not shown) [Compound 18] were, in that order, 6.6 nmole per gram, 7.6 mm, 6.2 mm and 10.4 mm.
With `CC(=O)N[C@H]1[C@H]([C@H](OC(=O)NCCCCCCCCCCCCNC(=O)O[C@@H]([C@@H]2OC(C(=O)O)=C[C@H](NC(=N)N)[C@H]2NC(C)=O)[C@H](O)CO)[C@H](O)CO)OC(C(=O)O)=C[C@@H]1NC(=N)N.O=C(O)C(F)(F)F.O=C(O)C(F)(F)F` [Example 2, (2R,3R,4S)-3-(acetylamino)-2-{(1R,20R,21R)-20-((2R,3R,4S)-3-(acetylamino)-4-{[amino(imino)methyl]amino}-6-carboxy-3,4-dihydro-2H-pyran-2-yl)-1-[(1R)-1,2-dihydroxyethyl]-21,22-dihydroxy-3,18-dioxo-2,19-dioxa-4,17-diazadocos-1-yl}-4-{[amino(imino)methyl]amino}-3,4-dihydro-2H-pyran-6-carboxylic acid bis(trifluoroacetic acid salt)], the “EC50 ng/ml PRA B/Vic” value in the data set on B/Victoria/1/67 was 0.04 ng/mL and 0.05 ng/mL. The “EC50 ng/ml PRA B/Yam” value in data set [2] is less than 0.0001 ng/mL. The “EC50 ng/ml PRA A/Syd” value in data set [10] is less than 0.0001 ng/mL.
With `CC(=O)N[C@H]1[C@H]([C@H](OC(=O)NCCCCCCCCCCCCCCNC(=O)O[C@@H]([C@@H]2OC(C(=O)O)=C[C@H](NC(=N)N)[C@H]2NC(C)=O)[C@H](O)CO)[C@H](O)CO)OC(C(=O)O)=C[C@@H]1NC(=N)N.O=C(O)C(F)(F)F.O=C(O)C(F)(F)F` [Example 3, (2R,3R,4S)-3-(acetylamino)-2-{(1R,22R,23R)-22-((2R,3R,4S)-3-(acetylamino)-4-{[amino(imino)methyl]amino}-6-carboxy-3,4-dihydro-2H-pyran-2-yl)-1-[(1R)-1,2-dihydroxyethyl]-23,24-dihydroxy-3,20-dioxo-2,21-dioxa-4,19-diazatetracos-1-yl}-4-{[amino(imino)methyl]amino}-3,4-dihydro-2H-pyran-6-carboxylic acid bis(trifluoroacetic acid salt)], the “EC50 ng/ml PRA A/Vic” value in [1] came to 0.0023 ng/mL. Further, the “EC50 ng/ml PRA B/Vic” value in the data set on B/Victoria/1/67 was 0.009 ng/mL and 0.01 ng/mL. For the same molecule, the “EC50 ng/ml PRA B/Yam” value in data set [2] is <0.0001, <0.0001 ng/ml. Further, the “EC50 ng/ml PRA B/HongK” value with B/Hong Kong/5/72 BVLV012 (B/Hong Kong/5/72 BVLV012, plaque numbers reduced by 50%) is less than 0.0001 ng/mL. Also, the “EC50 ng/ml PRA A/Syd” value in data set [10] is 0.000429 ng/mL.
Turning to `CC(=O)N[C@H]1[C@H]([C@H](OC(=O)NCCCCCCCCCCCCCNC(=O)O[C@H](C(O)CO)[C@@H]2OC(C(=O)O)=C[C@H](NC(=N)N)[C@H]2NC(C)=O)[C@H](O)CO)OC(C(=O)O)=C[C@@H]1NC(=N)N` (stereo partly drawn) [Example 4, (2R,3R,4S)-3-(acetylamino)-2-{(1R,21R,22R)-21-((2R,3R,4S)-3-(acetylamino)-4-{[amino(imino)methyl]amino}-6-carboxy-3,4-dihydro-2H-pyran-2-yl)-1-[(1R)-1,2-dihydroxyethyl]-22,23-dihydroxy-3,19-dioxo-2,20-dioxa-4,18-diazatricos-1-yl}-4-{[amino(imino)methyl]amino}-3,4-dihydro-2H-pyran-6-carboxylic acid bis(trifluoroacetic acid salt)], the EC50 in the data set on A/WSN/33 BVLV09 (H1N1) was less than 0.0001 ng/mL; in [2], less than 0.0001 ng/mL; in the data set with B/Hong Kong/5/72 BVLV012, 0.06 ng/mL; in [3] it was 0.043 ng/mL; in data set [4] it was less than 1e-05 ng/mL; in [10] (Influenza A virus, MDCK, read-out: EC50 ng/ml PRA A/Syd), less than 0.0001 ng/mL.
Consider `NC[C@H]1O[C@H](O[C@H]2[C@H](O)[C@@H](O[C@H]3O[C@H](CO)[C@@H](O)[C@H](N)[C@H]3O)[C@H](N)C[C@@H]2N)[C@H](O)[C@@H](O)[C@@H]1O` [Kanamycin A, reference compound], for which the “diameter of zone of inhibition, Escherichia coli ATTCC 25922” value in [6] is recorded as 18.2 mm. Also, in data set [7], the “diameter of zone of inhibition, Enterococcus faecalis ATCC 29212” value was 6.7 mm. For the same molecule, the “diameter of zone of inhibition, Pseudomonas aeuruginosa ATCC 27853” value in data set [8] was determined as 6.2 mm. Also, the “diameter of zone of inhibition, Staphylococcus aureus ATCC 29213” value in data set [9] is recorded as 19.1 mm.
In the case of `CCOC(=O)C1=C[C@@H](OC(CC)CC)[C@H](NC(C)=O)[C@@H](N)C1` [Oseltamivir], the EC50 in [1] came to 0.11 ng/mL (≈ 0.000352 µM); in [2], 0.7 ng/mL (≈ 0.00224 µM); with B/Hong Kong/5/72 BVLV012 it was 32 ng/mL (≈ 0.102 µM); in [3] it was 0.23 ng/mL (≈ 0.000736 µM); in data set [4], 0.3 ng/mL (≈ 0.00096 µM).
Take `NC[C@H]1O[C@H](O[C@H]2[C@H](O)[C@@H](O[C@H]3O[C@H](CO)[C@@H](O)[C@H](N)[C@H]3O)[C@H](N)C[C@@H]2N)[C@H](N)C[C@@H]1O` [Tobramycin, reference compound]: the “nmole retained per gram” value in [5] came out at 2.1 nmole per gram. In addition, the zone of inhibition at 30 µg/disc in [6] turned out to be 18.4 mm; in [7], 15.7 mm; in data set [8], 24.9 mm; in [9] it was 26.7 mm.
Turning to Neomycin [reference compound], the “diameter of zone of inhibition, Escherichia coli ATTCC 25922” value in data set [6] is listed as 14.4 mm. Also, the “diameter of zone of inhibition, Enterococcus faecalis ATCC 29212” value in data set [7] is 6.7 mm. Besides, the “diameter of zone of inhibition, Pseudomonas aeuruginosa ATCC 27853” value in data set [8] is given as 7.1 mm. Further, the “diameter of zone of inhibition, Staphylococcus aureus ATCC 29213” value in [9] turned out to be 16.8 mm.
